What was measured:
LNCaP cell line = experiment: Transwell migration assay on LNCaP cell line; type: cell-based, human; conditions: medium containing docetaxel (3 nM), no Pep1
Experimental: The effects of Pep1 on cancer cell migration were evaluated by trans-well assay.
The cancer cell migration was evaluated by using the reagents and materials and the cell line incubation method which are described in connection with Example 1. A migration assay method used for this experiment is as follows.
The LNCaP cell line was incubated on a 6-well plate overnight, and then treated with various concentrations of Pep1 (0, 1, 10, 30 μM) and incubated for 24 hours. Thereafter, the resultant LNCaP cell line was seeded at the cell population of 1×10^4/well on a trans-well plate. Three hours after, the upper compartment of each well was removed, and cells that had migrated downwards were immobilized, stained, and quantified.
A separate experiment was further performed to identify cell migration when Pep1 was co-administered with docetaxel. The LNCaP cell line was incubated on a 6-well plate overnight, and then, treated with various concentrations of Pep1(0, 1, 3, 10, and 30 μM) and incubated for 24 hours. Additionally, the cell line was incubated in a growth medium containing docetaxel (3 nM) for 48 hours, and then, seeded on a trans-well plate at a cell population of 1×10^4/well. Three hours after, the upper compartment of each well was removed, and cells that had migrated downwards were immobilized, stained, and quantified. […]

[1] = test system: prostate cancer having a hormone tolerance; conditions: Beer et al, 2001; cited from earlier work
prostate cancer = conditions: administered together with docetaxel; Henly et al 2012; cited from earlier work

SMILES	cancer cell migration (migrated cell number) (LNCaP cell line)	treatment efficiency [1]	anti-cancer effects (prostate cancer)
CC(=O)O[C@@]12CO[C@@H]1C[C@H](O)[C@@]1(C)C(=O)[C@H](O)C3=C(C)[C@@H](OC(=O)[C@H](O)[C@@H](NC(=O)OC(C)(C)C)c4ccccc4)C[C@@](O)([C@@H](OC(=O)c4ccccc4)[C@H]21)C3(C)C [docetaxel]	the cancer cell migration was increased	about 40%	
Nc1cccc2c1CN(C1CCC(=O)NC1=O)C2=O (stereo not drawn) [lenalidomide]			anti-cancer effects are significantly increased
